The text below walks through data of publication PMC8887546, “Design and Synthesis of Brain Penetrant Glycopeptide Analogues of PACAP With Neuroprotective Potential for Traumatic Brain Injury and Parkinsonism” (Frontiers in drug discovery, 2022).

Holding throughout (assay type): cell-based
For one test, the target named is T1, human VPAC2 receptor (Homo sapiens, UniProt P41587).
T1 construct: expressed in transfected cells; host or cells: CHO cells (G418 selection)
T1 sequence (P41587 24-438): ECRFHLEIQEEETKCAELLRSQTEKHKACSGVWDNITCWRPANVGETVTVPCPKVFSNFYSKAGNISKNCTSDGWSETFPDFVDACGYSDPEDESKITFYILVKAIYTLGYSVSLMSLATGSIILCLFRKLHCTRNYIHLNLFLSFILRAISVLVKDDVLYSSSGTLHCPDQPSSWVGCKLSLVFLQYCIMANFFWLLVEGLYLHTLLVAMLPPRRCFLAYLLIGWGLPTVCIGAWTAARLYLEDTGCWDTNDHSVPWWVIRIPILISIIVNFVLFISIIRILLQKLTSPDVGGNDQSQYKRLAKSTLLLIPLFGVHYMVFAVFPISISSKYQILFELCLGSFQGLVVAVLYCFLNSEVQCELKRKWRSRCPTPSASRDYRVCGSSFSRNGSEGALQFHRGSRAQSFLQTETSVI
The test can be described thus: cAMP stimulation in CHO cells expressing VPAC2. As to conditions: for Emax: CHO; for Receptor selectivity ratio VPAC2/PAC1 / Receptor selectivity ratio VPAC2/VPAC1: ratio of cAMP EC50 values. As for the experimental part:
(§1) Briefly, human PAC1, VPAC1, and VPAC2 receptors expressed in CHO cells were used for all experiments. Cells were grown in 50:50 DMEM-F12 medium with 10% heat-inactivated fetal bovine serum, 1X penicillin-streptomycin supplement, and 500 μg/ml G418 (neomycin) to maintain selection (all from ThermoFisher) at 37°C with 5% CO2 atmosphere. For the cAMP assay, cells were seeded at 20,000 cells/well in a 96 well plate, recovered overnight, then serum starved for 4 h. The cells were then incubated with 500 μM IBMX for 20 min, followed by agonist concentration curves in 500 μM IBMX media for 10 min. The reaction was terminated, boiled, then collected, followed by competition with 7 μg of bovine protein kinase A (Sigma-Aldrich) and ∼1 pmol of ^3H-cAMP (PerkinElmer). The assay was incubated at room temp for 1 h, then collected onto GF/B filter plates and the data read using a MicroBeta2 scintillation counter (PerkinElmer).

The next test concerns the target T2, human VPAC1 receptor (Homo sapiens, UniProt P32241).
T2 construct: expressed in transfected cells; host or cells: CHO cells (G418 selection)
T2 sequence (P32241 31-457): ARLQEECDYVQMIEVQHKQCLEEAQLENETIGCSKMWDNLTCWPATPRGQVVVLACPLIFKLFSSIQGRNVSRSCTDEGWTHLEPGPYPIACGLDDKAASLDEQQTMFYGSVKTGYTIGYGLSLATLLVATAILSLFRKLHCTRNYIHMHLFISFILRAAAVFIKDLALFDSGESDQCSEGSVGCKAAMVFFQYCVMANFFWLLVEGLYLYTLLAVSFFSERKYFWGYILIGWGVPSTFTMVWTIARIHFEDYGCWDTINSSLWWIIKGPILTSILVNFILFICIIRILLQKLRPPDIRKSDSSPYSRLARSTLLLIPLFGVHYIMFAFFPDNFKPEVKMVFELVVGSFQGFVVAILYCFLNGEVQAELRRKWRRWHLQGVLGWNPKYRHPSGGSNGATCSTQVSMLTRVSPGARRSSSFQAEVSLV
The test can be described thus: cAMP stimulation in CHO cells expressing VPAC1. To be noted: for Emax: CHO, read-out: VPAC1 Emax; for Receptor selectivity ratio VPAC1/PAC1: ratio of cAMP EC50 values; for EC50: read-out: VPAC1 EC50.

Another test has as its target T3, human PAC1 receptor (Homo sapiens, UniProt P41586).
T3 construct: expressed in transfected cells; host or cells: CHO cells (G418 selection)
T3 sequence (P41586 21-468): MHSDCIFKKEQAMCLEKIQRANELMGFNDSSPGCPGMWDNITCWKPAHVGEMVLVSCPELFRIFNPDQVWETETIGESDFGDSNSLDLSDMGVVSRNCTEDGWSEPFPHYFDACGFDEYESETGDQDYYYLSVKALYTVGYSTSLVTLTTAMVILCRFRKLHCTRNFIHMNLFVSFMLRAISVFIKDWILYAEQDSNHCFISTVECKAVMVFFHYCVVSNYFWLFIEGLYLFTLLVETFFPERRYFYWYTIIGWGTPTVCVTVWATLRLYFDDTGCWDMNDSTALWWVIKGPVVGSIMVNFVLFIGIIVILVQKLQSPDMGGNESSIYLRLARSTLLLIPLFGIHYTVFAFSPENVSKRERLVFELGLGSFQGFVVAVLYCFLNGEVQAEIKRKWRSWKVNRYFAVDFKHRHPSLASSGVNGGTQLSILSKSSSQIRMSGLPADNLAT
The test can be described thus: cAMP stimulation in CHO cells expressing PAC1. As to conditions: for Emax: CHO. As for the experimental part: as §1

As usually defined, the EC50 is the concentration giving half of the maximal effect. One may read the Emax as the greatest response seen or fitted, relative to the assay's reference.

As for `CCC[C@H](NC(=O)[C@H](CCC(N)=O)NC(=O)[C@H](CCCCN)NC(=O)[C@H](CCCNC(=N)N)NC(=O)[C@H](Cc1ccc(O)cc1)NC(=O)[C@H](CCCNC(=N)N)NC(=O)[C@H](CO)NC(=O)[C@H](Cc1ccc(O)cc1)NC(=O)[C@H](CO)NC(=O)[C@H](CC(=O)O)NC(=O)[C@@H](NC(=O)[C@H](Cc1ccccc1)NC(=O)[C@H](CC(C)C)NC(=O)CNC(=O)[C@H](CC(=O)O)NC(=O)[C@@H](CO)NC(=O)[C@@H](N)Cc1c[nH]cn1)[C@@H](C)O)C(=O)N[C@@H](C)C(=O)N[C@H](C(=O)N[C@@H](CCCCN)C(=O)N[C@@H](CCCCN)C(=O)N[C@@H](Cc1ccc(O)cc1)C(=O)N[C@@H](CC(C)C)C(=O)N[C@@H](C)C(=O)N[C@@H](C)C(=O)N[C@H](C(=O)N[C@@H](CC(C)C)C(=O)N[C@@H](CO[C@@H]1O[C@H](CO)[C@@H](O)[C@H](O)[C@H]1O)C(N)=O)C(C)C)C(C)C` [CRA3013], at human VPAC2 receptor, the 50% effective concentration (EC50) came out at 0.65 µM, the Emax was 88%, the “Receptor selectivity ratio VPAC2/PAC1” value was 7.31 and the “Receptor selectivity ratio VPAC2/VPAC1” value is given as 31.10. In addition, at human VPAC1 receptor, the Emax was determined as 113%, the “Receptor selectivity ratio VPAC1/PAC1” value amounted to 0.24 and the EC50 amounted to 0.0209 µM. On human PAC1 receptor, this compound showed an EC50 of 0.0889 µM and an Emax of 74%.

For the compound `CCC[C@H](NC(=O)[C@H](CCC(N)=O)NC(=O)[C@H](CCCCN)NC(=O)[C@H](CCCNC(=N)N)NC(=O)[C@H](Cc1ccc(O)cc1)NC(=O)[C@H](CCCNC(=N)N)NC(=O)[C@H](CO)NC(=O)[C@H](Cc1ccc(O)cc1)NC(=O)[C@H](CO)NC(=O)[C@H](CC(=O)O)NC(=O)[C@@H](NC(=O)[C@H](Cc1ccccc1)NC(=O)[C@@H](NC(=O)CCNC(=O)[C@H](CC(=O)O)NC(=O)[C@@H](CO)NC(=O)[C@@H](N)Cc1c[nH]cn1)[C@@H](C)CC)[C@@H](C)O)C(=O)N[C@@H](C)C(=O)N[C@H](C(=O)N[C@@H](CCCCN)C(=O)N[C@@H](CCCCN)C(=O)N[C@@H](Cc1ccc(O)cc1)C(=O)N[C@@H](CC(C)C)C(=O)N[C@@H](C)C(=O)N[C@@H](C)C(=O)N[C@H](C(=O)N[C@@H](CC(C)C)C(=O)N[C@@H](CO[C@@H]1O[C@H](CO)[C@@H](O)[C@H](O)[C@H]1O)C(N)=O)C(C)C)C(C)C` [CRA3008], on human VPAC2 receptor, the EC50 is 0.737 µM, the Emax worked out at 65%, the “Receptor selectivity ratio VPAC2/PAC1” value is 4.64 and the “Receptor selectivity ratio VPAC2/VPAC1” value was determined as 3.65. Moreover, at human VPAC1 receptor, the Emax was 108%, the “Receptor selectivity ratio VPAC1/PAC1” value stood at 1.27 and the half-maximal effective concentration (EC50) is 0.202 µM. At human PAC1 receptor, this compound came in with an EC50 of 0.159 µM and an Emax of 76%.

`CC[C@H](C)[C@H](NC(=O)CNC(=O)[C@H](CC(=O)O)NC(=O)[C@H](CO)NC(=O)[C@H](Cc1c[nH]cn1)NC(C)=O)C(=O)N[C@@H](Cc1ccccc1)C(=O)N[C@H](C(=O)N[C@@H](CC(=O)O)C(=O)N[C@@H](CO)C(=O)N[C@@H](Cc1ccc(O)cc1)C(=O)N[C@@H](CO)C(=O)N[C@@H](CCCNC(=N)N)C(=O)N[C@@H](Cc1ccc(O)cc1)C(=O)N[C@@H](CCCNC(=N)N)C(=O)N[C@@H](CCCCN)C(=O)N[C@@H](CCC(N)=O)C(=O)N[C@@H](CC(C)C)C(=O)N[C@@H](C)C(=O)N[C@H](C(=O)N[C@@H](CCCCN)C(=O)N[C@@H](CCCCN)C(=O)N[C@@H](Cc1ccc(O)cc1)C(=O)N[C@@H](CC(C)C)C(=O)N[C@@H](C)C(=O)N[C@@H](C)C(=O)N[C@H](C(=O)N[C@@H](CC(C)C)C(=O)N[C@@H](CO[C@@H]1O[C@H](CO)[C@@H](O[C@@H]2O[C@H](CO)[C@H](O)[C@H](O)[C@H]2O)[C@H](O)[C@H]1O)C(N)=O)C(C)C)C(C)C)[C@@H](C)O` [Ac-2LS132]: at human VPAC2 receptor, the half-maximal effective concentration (EC50) was found to be 0.0272 µM, the maximal effect (Emax) turned out to be 101%, the “Receptor selectivity ratio VPAC2/PAC1” value worked out at 9.71 and the “Receptor selectivity ratio VPAC2/VPAC1” value amounted to 12.36. Further, on human VPAC1 receptor, the maximum response (Emax) stood at 98%, the “Receptor selectivity ratio VPAC1/PAC1” value was found to be 0.79 and the EC50 was 0.0022 µM. At human PAC1 receptor, this compound returned a concentration for a half-maximal effect (EC50) of 0.0028 µM and a maximal response (Emax) of 96%.

In the case of `CCCC[C@H](NC(=O)CNC(=O)[C@H](CC(=O)O)NC(=O)[C@@H](CO)NC(=O)[C@@H](N)Cc1c[nH]cn1)C(=O)N[C@@H](Cc1ccccc1)C(=O)N[C@H](C(=O)N[C@@H](CC(=O)O)C(=O)N[C@@H](CO)C(=O)N[C@@H](Cc1ccc(O)cc1)C(=O)N[C@@H](CO)C(=O)N[C@@H](CCCNC(=N)N)C(=O)N[C@@H](Cc1ccc(O)cc1)C(=O)N[C@@H](CCCNC(=N)N)C(=O)N[C@@H](CCCCN)C(=O)N[C@@H](CCC(N)=O)C(=O)N[C@@H](CCC)C(=O)N[C@@H](C)C(=O)N[C@H](C(=O)N[C@@H](CCCCN)C(=O)N[C@@H](CCCCN)C(=O)N[C@@H](Cc1ccc(O)cc1)C(=O)N[C@@H](CC(C)C)C(=O)N[C@@H](C)C(=O)N[C@@H](C)C(=O)N[C@H](C(=O)N[C@@H](CC(C)C)C(=O)N[C@@H](CO[C@@H]1O[C@H](CO)[C@@H](O)[C@H](O)[C@H]1O)C(N)=O)C(C)C)C(C)C)[C@@H](C)O` [CRA3017], on human VPAC2 receptor, the EC50 worked out at 0.189 µM, the Emax came out at 109%, the “Receptor selectivity ratio VPAC2/PAC1” value worked out at 17.83 and the “Receptor selectivity ratio VPAC2/VPAC1” value was 39.38. Also, at human VPAC1 receptor, the Emax stood at 94%, the “Receptor selectivity ratio VPAC1/PAC1” value is 0.45 and the EC50 turned out to be 0.0048 µM. At human PAC1 receptor, this compound yielded a half-maximal effective concentration (EC50) of 0.0106 µM and a maximal response (Emax) of 95%.

For the compound `CCC[C@H](NC(=O)[C@H](CCC(N)=O)NC(=O)[C@H](CCCCN)NC(=O)[C@H](CCCNC(=N)N)NC(=O)[C@H](Cc1ccc(O)cc1)NC(=O)[C@H](CCCNC(=N)N)NC(=O)[C@H](CO)NC(=O)[C@H](Cc1ccc(O)cc1)NC(=O)[C@H](CO)NC(=O)[C@H](CC(=O)O)NC(=O)[C@@H](NC(=O)[C@H](Cc1ccccc1)NC(=O)[C@H](C)NC(=O)CNC(=O)[C@H](CC(=O)O)NC(=O)[C@@H](CO)NC(=O)[C@@H](N)Cc1c[nH]cn1)[C@@H](C)O)C(=O)N[C@@H](C)C(=O)N[C@H](C(=O)N[C@@H](CCCCN)C(=O)N[C@@H](CCCCN)C(=O)N[C@@H](Cc1ccc(O)cc1)C(=O)N[C@@H](CC(C)C)C(=O)N[C@@H](C)C(=O)N[C@@H](C)C(=O)N[C@H](C(=O)N[C@@H](CC(C)C)C(=O)N[C@@H](CO[C@@H]1O[C@H](CO)[C@@H](O)[C@H](O)[C@H]1O)C(N)=O)C(C)C)C(C)C` [CRA 3014], at human VPAC2 receptor, the concentration for a half-maximal effect (EC50) stood at 2.65 µM, the maximal effect (Emax) was found to be 122%, the “Receptor selectivity ratio VPAC2/PAC1” value came to 12.95 and the “Receptor selectivity ratio VPAC2/VPAC1” value is given as 20.11. Moreover, on human VPAC1 receptor, the maximal effect (Emax) worked out at 122%, the “Receptor selectivity ratio VPAC1/PAC1” value turned out to be 0.64 and the EC50 was 0.132 µM. At human PAC1 receptor, this compound returned an EC50 of 0.205 µM and an Emax of 79%.
